Experimental data from patent US8709747B2, “Biphotonic photosensitizers, nanoparticles containing the same and their use as drugs” (Centre National de la Recherche Scientifique, priority 2009, dated 2014).
Blank lines part the entries; values can stand above or below the compound they belong to.

Tests used:
[1] = Photophysical properties (absorption, emission, fluorescence) in solution or dispersion; type: physicochemical; details: for Φf (fluorescence quantum yield): relative to quinine in 0.5 M H2SO4; for Φ / εmax / λmax^abs / λmax^em / quantum yield for fluorescence: in ethanol; for quantum yield for fluorescence: orange emission
[2] = Two-photon absorption cross section; type: physicochemical; details: for two-photon absorption cross section: at 720 nm; for λmax^TPA / σ2^max: table titled in ethanol
[3] = Quantum yield for singlet oxygen generation; type: physicochemical; details: in toluene
[4] = spectral range of interest; Drobizhev et al.; cited from earlier work

Stokes shift ([1]; AcOEt): 4605 cm⁻¹
knr (non-radiative decay rate) ([1]; AcOEt): 0.34 10^9 s^−1
kr (radiative decay rate) ([1]; AcOEt): 0.36 10^9 s^−1
r (fluorescence anisotropy) ([1]; AcOEt): 0.12
λabs ([1]; AcOEt): 435 nm
λem ([1]; AcOEt): 544 nm
τ ([1]; AcOEt): 1.42 ns
τo (radiative lifetime) ([1]; AcOEt): 2.77 ns
Φf (fluorescence quantum yield) ([1]; AcOEt): 0.51
Stokes shift ([1]; Acetone): 5950 cm⁻¹
knr (non-radiative decay rate) ([1]; Acetone): 0.89 10^9 s^−1
kr (radiative decay rate) ([1]; Acetone): 0.25 10^9 s^−1
r (fluorescence anisotropy) ([1]; Acetone): 0.13
λabs ([1]; Acetone): 437.5 nm
λem ([1]; Acetone): 591.5 nm
τ ([1]; Acetone): 0.88 ns
τo (radiative lifetime) ([1]; Acetone): 4.02 ns
Φf (fluorescence quantum yield) ([1]; Acetone): 0.22
Stokes shift ([1]; Bu2O): 2700 cm⁻¹
knr (non-radiative decay rate) ([1]; Bu2O): 0.45 10^9 s^−1
kr (radiative decay rate) ([1]; Bu2O): 0.56 10^9 s^−1
r (fluorescence anisotropy) ([1]; Bu2O): 0.19
λabs ([1]; Bu2O): 433.5 nm
λem ([1]; Bu2O): 491 nm
τ ([1]; Bu2O): 0.99 ns
τo (radiative lifetime) ([1]; Bu2O): 1.79 ns
Φf (fluorescence quantum yield) ([1]; Bu2O): 0.55
Stokes shift ([1]; CH3CN): 6355 cm⁻¹
knr (non-radiative decay rate) ([1]; CH3CN): 0.92 10^9 s^−1
kr (radiative decay rate) ([1]; CH3CN): 0.05 10^9 s^−1
r (fluorescence anisotropy) ([1]; CH3CN): 0.21
λabs ([1]; CH3CN): 436.5 nm
λem ([1]; CH3CN): 604 nm
τ ([1]; CH3CN): 1.03 ns
τo (radiative lifetime) ([1]; CH3CN): 19.99 ns
Φf (fluorescence quantum yield) ([1]; CH3CN): 0.052
Stokes shift ([1]; CHCl3): 4035 cm⁻¹
knr (non-radiative decay rate) ([1]; CHCl3): 0.43 10^9 s^−1
kr (radiative decay rate) ([1]; CHCl3): 0.39 10^9 s^−1
r (fluorescence anisotropy) ([1]; CHCl3): 0.15
λabs ([1]; CHCl3): 431.5 nm
λem ([1]; CHCl3): 522.5 nm
τ ([1]; CHCl3): 1.22 ns
τo (radiative lifetime) ([1]; CHCl3): 2.54 ns
Φf (fluorescence quantum yield) ([1]; CHCl3): 0.48
Stokes shift ([1]; DCM): 4870 cm⁻¹
knr (non-radiative decay rate) ([1]; DCM): 0.27 10^9 s^−1
kr (radiative decay rate) ([1]; DCM): 0.42 10^9 s^−1
r (fluorescence anisotropy) ([1]; DCM): 0.10
λabs ([1]; DCM): 433.5 nm
λem ([1]; DCM): 549.5 nm
τ ([1]; DCM): 1.43 ns
τo (radiative lifetime) ([1]; DCM): 2.35 ns
Φf (fluorescence quantum yield) ([1]; DCM): 0.61
Stokes shift ([1]; DMSO): 6090 cm⁻¹
knr (non-radiative decay rate) ([1]; DMSO): 1.94 10^9 s^−1
kr (radiative decay rate) ([1]; DMSO): 0.10 10^9 s^−1
r (fluorescence anisotropy) ([1]; DMSO): 0.28
λabs ([1]; DMSO): 448.5 nm
λem ([1]; DMSO): 617 nm
τ ([1]; DMSO): 0.49 ns
τo (radiative lifetime) ([1]; DMSO): 9.7 ns
Φf (fluorescence quantum yield) ([1]; DMSO): 0.051
Stokes shift ([1]; THF): 4865 cm⁻¹
knr (non-radiative decay rate) ([1]; THF): 0.32 10^9 s^−1
kr (radiative decay rate) ([1]; THF): 0.34 10^9 s^−1
r (fluorescence anisotropy) ([1]; THF): 0.12
λabs ([1]; THF): 437 nm
λem ([1]; THF): 555 nm
τ ([1]; THF): 1.51 ns
τo (radiative lifetime) ([1]; THF): 2.93 ns
Φf (fluorescence quantum yield) ([1]; THF): 0.51
Stokes shift ([1]; Toluene): 2650 cm⁻¹
knr (non-radiative decay rate) ([1]; Toluene): 0.56 10^9 s^−1
kr (radiative decay rate) ([1]; Toluene): 0.52 10^9 s^−1
r (fluorescence anisotropy) ([1]; Toluene): 0.16
λabs ([1]; Toluene): 436 nm
λem ([1]; Toluene): 493 nm
τ ([1]; Toluene): 0.93 ns
τo (radiative lifetime) ([1]; Toluene): 1.94 ns
Φf (fluorescence quantum yield) ([1]; Toluene): 0.48
Φ [1]: 0.65
εmax [1]: 1.04 10^5 M^−1cm^−1
λmax^abs [1]: 432 nm
λmax^em [1]: 561 nm
quantum yield for fluorescence [1]: 65%
two-photon absorption cross section [2]: 1340 GM
λmax^TPA [2]: 730 nm
σ2^max [2]: 1204 GM
quantum yield for singulet oxygen generation [3]: 22%
Structure (SMILES): CCCCC1(CCCC)c2cc(C#Cc3ccc(/C=C/c4ccc(N(CC)CCO)cc4)s3)ccc2-c2ccc(C#Cc3ccc(/C=C/c4ccc(N(CC)CCO)cc4)s3)cc21 [Photosensitizer 6a]

Φ [1]: 0.33
εmax [1]: 0.98 10^5 M^−1cm^−1
λmax^abs [1]: 434 nm
λmax^em [1]: 575 nm
quantum yield for fluorescence [1]: 65%
two-photon absorption cross section [2]: 1530 GM
λmax^TPA [2]: 730 nm
σ2^max [2]: 1530 GM
quantum yield for singulet oxygen generation [3]: 22%
Structure (SMILES): CCN(CCO)c1ccc(/C=C/c2ccc(C#Cc3ccc4c(c3)C(CCOCCOCCOC)(CCOCCOCCOC)c3cc(C#Cc5ccc(/C=C/c6ccc(N(CC)CCO)cc6)s5)ccc3-4)s2)cc1 [Photosensitizer 6b]

Structure (SMILES): C1=Cc2nc1c(-c1ccccc1)c1ccc([nH]1)c(-c1ccccc1)c1nc(c(-c3ccccc3)c3ccc([nH]3)c2-c2ccccc2)C=C1 [tetraphenylporphine]
two-photon absorption (TPA) cross-section [4]: 15 GM
